Tested on: Human primary melanocytes
Assay: Melanin production by human melanocytes irradiated with 20 mJ/cm^2 UVB 2 times, treated with test substances for 2 weeks (Test Example 3)
Type: cell-based
Procedure: Human primary melanocytes (Life Technologies, CA, USA) were cultured in M-254 medium (Gibco BRL, NY, USA) supplemented with human melanocyte growth supplement (HMGS; Gibco BRL, NY, USA) under the condition of 37° C. and 5% CO2. After plating the cells on a 100-mm culture dish with 2×10^5 cells per dish and waiting overnight, 20 mJ/cm^2 UVB was radiated 2 times with a 24-hour interval. Then, the cells were cultured for 2 weeks while replacing the medium with one containing the ginseng-derived exosome-like vesicles obtained in Example 1 at concentrations of 0.1 μg/mL, 1 μg/m L, 5 μg/mL or 10 μg/mL once in 4 days. For comparison, positive control groups were treated with 30 μM Melasolv, 1 μM compound K or 2 ppm fermented saponin for 2 weeks in the same manner and melanin production was measured. As negative control groups, melanocytes not treated with UVB and melanocytes treated with UVB but not treated with the test substances were cultured in the same manner. 2 weeks later, the cells were detached from the culture dish and counted. The cells of the same number were collected into a microtube, lysed with a RIPA lysis buffer (Millipore, 20-188) and then centrifuged at 13,500 rpm for 30 minutes. The precipitating pellets were dissolved in 1 N NaOH and photographed for comparison of color. Melanin contents were compared by measuring absorbance at 450 nm.

Row | SMILES | Decrease (%) in melanin contents (1 μM) [%] | Decrease (%) in melanin contents (30 μM) [%]
1 | CC(C)=CCC[C@](C)(O[C@@H]1O[C@H](CO)[C@@H](O)[C@H](O)[C@H]1O)[C@H]1CC[C@]2(C)[C@@H]1[C@H](O)C[C@@H]1[C@@]3(C)CC[C@H](O)C(C)(C)[C@@H]3CC[C@]12C [Comp. K, compound K] | 28.3 | –
2 | COc1cc(/C=C/C(=O)Oc2cc(C)ccc2C(C)C)cc(OC)c1OC [Melasolv] | – | 54.0
